Each block holds one compound with its values, some of them ahead of it.
Assays:
22RV1 [1] = test: Cell viability, MTT assay, 22RV1; type: cell-based; details: Homo sapiens, 22RV1 (Prostate), 96 hr
Description: (§1) To measure cell viability, cell titer glow (CTG, Promega CellTiter-Glo 2.0 Assay) and MTT assays (SigmaAldrich, Cell Proliferation Kit I) were performed. Briefly, cells were serum starved overnight prior to seeding in 96-well plates. Following 24 h incubation, cells were treated with increasing concentrations of JGJ compounds for 96 hr. At assay read-out, CellTiter-Glo reagent was added and luminescence was measured after 10-minutes incubation at room temperature. For the MTT assay, MTT labeling reagent was added and incubated for 4 h. Subsequently, medium was removed and 50 μL DMSO was added to solubilize the crystals, and absorbance was measured at 570 nm. Cell viability was calculated as (Sample-Background)/(Control-Background).

22RV1 [2] = test: Cell viability, CellTiter-Glo (CTG), 22RV1; type: cell-based; details: Homo sapiens, 22RV1 (Prostate), 96 hr
Description: as §1

MDA-MB231 = test: Cell viability, CTG, MDA-MB231; type: cell-based; details: Homo sapiens, MDA-MB-231, MDA-MB231 (Breast)
Description: as §1, with “(Sample-Background)/(Control-Background). Current standard of care drugs, Enzalutamide, Palbociclib and Cetuximab were used as comparative controls.” for “(Sample-Background)/(Control-Background).”

MCF7 [3] = test: Cell viability, CTG, MCF7; type: cell-based; details: Homo sapiens, MCF7 (Breast)
Description: as §1, with “(Sample-Background)/(Control-Background). Current standard of care drugs, Enzalutamide, Palbociclib and Cetuximab were used as comparative controls.” for “(Sample-Background)/(Control-Background).”

HCT-116 = test: Cell viability, CTG, HCT-116; type: cell-based; details: Homo sapiens, HCT-116 (Colon)
Description: as §1, with “(Sample-Background)/(Control-Background). Current standard of care drugs, Enzalutamide, Palbociclib and Cetuximab were used as comparative controls.” for “(Sample-Background)/(Control-Background).”

SW620 [4] = test: Cell viability, MTT assay, SW620; type: cell-based; details: Homo sapiens, SW-620, SW620 (Colon)
Description: as §1, with “(Sample-Background)/(Control-Background). Current standard of care drugs, Enzalutamide, Palbociclib and Cetuximab were used as comparative controls.” for “(Sample-Background)/(Control-Background).”

SW620 [5] = test: Cell viability, CTG, SW620; type: cell-based; details: Homo sapiens, SW-620, SW620 (Colon)
Description: as §1, with “(Sample-Background)/(Control-Background). Current standard of care drugs, Enzalutamide, Palbociclib and Cetuximab were used as comparative controls.” for “(Sample-Background)/(Control-Background).”

SW480 [6] = test: Cell viability, MTT assay, SW480; type: cell-based; details: Homo sapiens, SW480 (Colon)
Description: as §1, with “(Sample-Background)/(Control-Background). Current standard of care drugs, Enzalutamide, Palbociclib and Cetuximab were used as comparative controls.” for “(Sample-Background)/(Control-Background).”

SW480 [7] = test: Cell viability, CTG, SW480; type: cell-based; details: Homo sapiens, SW480 (Colon)
Description: as §1

ASPC-1 = test: Cell viability, CTG, ASPC-1; type: cell-based; details: Homo sapiens, ASPC1, ASPC-1 (Pancreatic)
Description: as §1, with “(Sample-Background)/(Control-Background). Current standard of care drugs, Enzalutamide, Palbociclib and Cetuximab were used as comparative controls.” for “(Sample-Background)/(Control-Background).”

CAPAN-1 = test: Cell viability, CTG, CAPAN-1; type: cell-based; details: Homo sapiens, CAPAN-1 (Pancreatic)
Description: as §1, with “(Sample-Background)/(Control-Background). Current standard of care drugs, Enzalutamide, Palbociclib and Cetuximab were used as comparative controls.” for “(Sample-Background)/(Control-Background).”

Caco2 permeability = type: in vitro ADME; details: human, Caco-2, Conc. 5 uM
[8] = Microsomal stability, CD-1 Mouse; type: in vitro ADME; details: Conc. 5 uM
[9] = Microsomal stability, Human; type: in vitro ADME; details: Conc. 5 uM
CYP 1A2 = target: T1, CYP 1A2 (Homo sapiens, UniProt P05177); test: CYP inhibition 1A2; type: in vitro ADME; parameters: unit not given here; details: Conc. 10 uM
T1 sequence (P05177 1-516): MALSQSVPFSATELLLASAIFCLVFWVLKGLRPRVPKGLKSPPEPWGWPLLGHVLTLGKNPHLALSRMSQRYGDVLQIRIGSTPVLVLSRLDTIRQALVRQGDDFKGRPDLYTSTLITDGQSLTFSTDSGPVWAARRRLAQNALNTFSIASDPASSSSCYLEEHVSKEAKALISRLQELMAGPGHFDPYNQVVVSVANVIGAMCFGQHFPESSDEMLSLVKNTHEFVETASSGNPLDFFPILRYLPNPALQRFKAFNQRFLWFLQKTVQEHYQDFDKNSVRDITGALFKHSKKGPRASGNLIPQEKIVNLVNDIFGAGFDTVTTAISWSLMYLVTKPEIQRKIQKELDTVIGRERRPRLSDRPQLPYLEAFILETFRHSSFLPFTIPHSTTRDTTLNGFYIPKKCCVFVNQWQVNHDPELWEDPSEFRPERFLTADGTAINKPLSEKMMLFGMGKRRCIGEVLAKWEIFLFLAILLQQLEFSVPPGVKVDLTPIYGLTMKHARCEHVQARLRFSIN

CYP 2B6 = target: T2, CYP 2B6 (Homo sapiens, UniProt P20813); test: CYP inhibition 2B6; type: in vitro ADME; parameters: unit not given here; details: Conc. 10 uM
T2 sequence (P20813 1-491): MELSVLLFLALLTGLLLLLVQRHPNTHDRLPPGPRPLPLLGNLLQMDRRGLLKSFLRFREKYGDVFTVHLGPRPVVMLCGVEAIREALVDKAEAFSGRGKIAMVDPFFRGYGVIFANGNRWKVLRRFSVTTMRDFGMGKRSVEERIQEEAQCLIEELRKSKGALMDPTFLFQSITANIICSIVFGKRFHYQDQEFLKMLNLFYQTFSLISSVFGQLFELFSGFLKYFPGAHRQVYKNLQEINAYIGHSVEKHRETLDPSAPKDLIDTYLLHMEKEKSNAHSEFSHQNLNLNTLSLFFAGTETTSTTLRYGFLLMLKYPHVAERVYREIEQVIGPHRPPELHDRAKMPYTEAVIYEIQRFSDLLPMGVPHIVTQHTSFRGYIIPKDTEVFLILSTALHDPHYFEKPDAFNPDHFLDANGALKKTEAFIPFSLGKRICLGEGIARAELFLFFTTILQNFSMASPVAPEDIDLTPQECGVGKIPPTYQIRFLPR

CYP 2C8 = target: T3, CYP 2C8 (Homo sapiens, UniProt P10632); test: CYP inhibition 2C8; type: in vitro ADME; parameters: unit not given here; details: Conc. 10 uM
T3 sequence (P10632 1-490): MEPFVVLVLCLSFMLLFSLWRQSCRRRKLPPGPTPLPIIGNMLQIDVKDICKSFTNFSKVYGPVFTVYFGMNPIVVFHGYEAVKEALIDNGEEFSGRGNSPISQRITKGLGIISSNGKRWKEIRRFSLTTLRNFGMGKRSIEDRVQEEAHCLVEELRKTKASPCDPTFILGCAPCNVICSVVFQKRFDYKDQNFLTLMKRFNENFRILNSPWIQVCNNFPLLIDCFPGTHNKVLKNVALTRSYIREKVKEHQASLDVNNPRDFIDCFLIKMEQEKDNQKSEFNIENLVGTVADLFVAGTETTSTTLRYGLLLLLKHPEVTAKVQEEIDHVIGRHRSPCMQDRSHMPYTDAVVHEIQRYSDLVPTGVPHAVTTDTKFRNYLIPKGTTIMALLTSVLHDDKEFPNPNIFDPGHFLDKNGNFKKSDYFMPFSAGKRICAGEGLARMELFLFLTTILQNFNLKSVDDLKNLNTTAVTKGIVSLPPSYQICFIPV

CYP 2C9 = CYP 2C9 (Homo sapiens, UniProt P11712); test: CYP inhibition 2C9; type: in vitro ADME; parameters: unit not given here; details: Conc. 10 uM
Sequence of CYP 2C9 (P11712 whole entry): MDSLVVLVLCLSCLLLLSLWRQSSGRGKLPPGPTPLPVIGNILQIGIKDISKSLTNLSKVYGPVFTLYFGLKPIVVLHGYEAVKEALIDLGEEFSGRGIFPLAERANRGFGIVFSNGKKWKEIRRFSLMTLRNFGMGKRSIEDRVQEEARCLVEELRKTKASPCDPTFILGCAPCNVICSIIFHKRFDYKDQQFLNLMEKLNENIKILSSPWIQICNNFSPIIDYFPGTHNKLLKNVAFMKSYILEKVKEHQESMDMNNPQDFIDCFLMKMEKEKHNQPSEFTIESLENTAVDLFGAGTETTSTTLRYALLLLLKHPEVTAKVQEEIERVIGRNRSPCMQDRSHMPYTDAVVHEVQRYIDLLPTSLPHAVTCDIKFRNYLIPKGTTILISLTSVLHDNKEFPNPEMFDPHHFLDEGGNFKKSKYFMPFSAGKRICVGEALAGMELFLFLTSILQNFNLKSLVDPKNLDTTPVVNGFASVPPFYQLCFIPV

CYP 2C19 = CYP 2C19 (Homo sapiens, UniProt P33261); test: CYP inhibition 2C19; type: in vitro ADME; parameters: unit not given here; details: Conc. 10 uM
Sequence of CYP 2C19 (P33261 whole entry): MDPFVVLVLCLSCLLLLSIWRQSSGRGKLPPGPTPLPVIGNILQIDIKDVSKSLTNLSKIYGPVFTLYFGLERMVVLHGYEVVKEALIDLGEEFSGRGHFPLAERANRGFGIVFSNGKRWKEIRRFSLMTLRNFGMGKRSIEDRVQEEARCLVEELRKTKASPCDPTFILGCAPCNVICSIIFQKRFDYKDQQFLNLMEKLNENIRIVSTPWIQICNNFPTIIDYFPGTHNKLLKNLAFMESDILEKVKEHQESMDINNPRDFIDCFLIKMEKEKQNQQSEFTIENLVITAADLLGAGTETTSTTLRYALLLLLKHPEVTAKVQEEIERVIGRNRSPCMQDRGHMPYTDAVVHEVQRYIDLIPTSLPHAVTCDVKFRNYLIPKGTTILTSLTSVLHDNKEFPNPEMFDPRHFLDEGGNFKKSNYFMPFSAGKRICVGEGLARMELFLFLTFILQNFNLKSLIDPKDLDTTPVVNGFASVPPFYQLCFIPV

CYP 2D6 = CYP 2D6 (Homo sapiens, UniProt P10635); test: CYP inhibition 2D6; type: in vitro ADME; parameters: unit not given here; details: Conc. 10 uM
Sequence of CYP 2D6 (P10635 whole entry): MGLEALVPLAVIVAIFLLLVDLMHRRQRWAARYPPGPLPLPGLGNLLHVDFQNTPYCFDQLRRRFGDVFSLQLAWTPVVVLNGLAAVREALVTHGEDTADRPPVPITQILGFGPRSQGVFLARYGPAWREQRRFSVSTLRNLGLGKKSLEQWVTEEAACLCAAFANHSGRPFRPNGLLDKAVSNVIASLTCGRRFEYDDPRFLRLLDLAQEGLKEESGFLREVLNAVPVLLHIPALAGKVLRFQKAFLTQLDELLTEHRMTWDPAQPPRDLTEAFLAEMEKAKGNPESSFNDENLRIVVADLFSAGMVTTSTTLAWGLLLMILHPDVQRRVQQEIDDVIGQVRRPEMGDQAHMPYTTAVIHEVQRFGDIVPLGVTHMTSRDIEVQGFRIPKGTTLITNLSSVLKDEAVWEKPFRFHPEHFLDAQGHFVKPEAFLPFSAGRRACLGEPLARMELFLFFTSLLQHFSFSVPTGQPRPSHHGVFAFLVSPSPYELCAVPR

MYC-driven cancers = test: Cell viability and cell counting assays in cancer cells; type: cell-based; details: TNBC, CRPC, lung and colorectal adenocarcinoma cells
Description: To test whether LN1632 and novel analogs thereof affect cancer cell growth, cell viability and cell counting assays in TNBC (FIG. 14B-D), castration resistant prostate cancer cells (CRPC, FIG. 15A-C) and colorectal cancer cells (CRC, FIG. 15A-C) were performed.
as §1, with “(Sample-Background)/(Control-Background). Current standard of care drugs, Enzalutamide, Palbociclib and Cetuximab were used as comparative controls.” for “(Sample-Background)/(Control-Background).”

LSCs = test: Colony forming capacity (CFC) of iMLL-AF9 LT-HSC derived LSCs; type: cell-based, mouse; details: 200 nM Ara-C or 30 μM 1632, 48 h
Excerpt: In addition, Lin28 was independently found to be a key driver in MLL-associated leukemias (56). In order to further characterize the role of Lin28/let-7 in regulating AML, LSC proliferation and therapy resistance in vivo, we used a doxycycline (DOX) inducible, transgenic mouse model for MLL-AF9-driven AML (iMLL-AF9 (57)). In this model, long-term HSC (LT-HSC, Lin^−CD34^−[…] c-Kit^+ CD150^+ CD48^−) derived AML blasts closely mirror an LSC-like phenotype resulting in a particularly aggressive, Cytarabine (Ara-C) resistant AML (57). […] Moreover, relapsed AML cells arising from rLSCs after treatment with Ara-C (100 mg/kg) at d+60 were even further enriched in Lin28b expression (FIG. 2B). Additionally, levels of both, let-7a and let-7b miRNAs, negatively correlated with increased Lin28b in rLSCs (FIG. 2C) (10, 39). Our findings are consistent with papers reporting that increased Lin28 correlates with disease recurrence post chemotherapy in colon and liver cancer stem cells (22, 58).
As Lin28 is overexpressed human AML, LSCs and rLSCs, we sought to determine if genetic Lin28b or pharmacologic Lin28/let-7 inhibition via LN1632 can abrogate proliferation of LSCs and thus overcome their therapy resistance. […]

BT-549 = test: Cell viability, MTT assay, BT-549; type: cell-based; details: Homo sapiens, BT-549 (Breast)
Description: as §1, with “(Sample-Background)/(Control-Background). Current standard of care drugs, Enzalutamide, Palbociclib and Cetuximab were used as comparative controls.” for “(Sample-Background)/(Control-Background).”

MCF7 [10] = test: Cell viability, MTT assay, MCF7; type: cell-based; details: Homo sapiens, MCF7 (Breast)
Description: as §1, with “(Sample-Background)/(Control-Background). Current standard of care drugs, Enzalutamide, Palbociclib and Cetuximab were used as comparative controls.” for “(Sample-Background)/(Control-Background).”

[11] = microsomes, read-out: Microsomal stability T½

IC50 (22RV1 [1]): 2000 nM | IC50 (22RV1 [2]): 3000 nM | IC50 (MDA-MB231): 11 µM | IC50 (MCF7 [3]): 15 µM | IC50 (HCT-116): 76 µM | IC50 (SW620 [4]): 8.5 µM | IC50 (SW620 [5]): 15 µM | IC50 (SW480 [6]): 26 µM | IC50 (SW480 [7]): 39 µM | IC50 (ASPC-1): 31 µM | Papp A→B at 5 uM (Caco2 permeability): 0.44 ×10⁻⁶ cm/s | Papp B→A at 5 uM (Caco2 permeability): 1.69 ×10⁻⁶ cm/s | efflux ratio at 5 uM (Caco2 permeability): 3.9 | recovery at 5 uM (Caco2 permeability; read-out: Caco2 Mean A-B % Recovery): 47% | Microsomal stability % Remaining at T30 [8]: T30 = 78.6% | microsomal CLint at 5 uM ([8]; microsomes): 14.9 µL/min/mg | half-life at 5 uM [8, 11]: 93 min | Microsomal stability % Remaining at T30 [9]: T30 = 91.2% | microsomal CLint at 5 uM ([9]; microsomes): 11.6 µL/min/mg | half-life at 5 uM [9, 11]: > 120 min | CYP inhibition 1A2 (CYP 1A2): 88.9 | CYP inhibition 2B6 (CYP 2B6): 69.6 | CYP inhibition 2C8 (CYP 2C8): 90.5 | CYP inhibition 2C9 (CYP 2C9): 86.6 | CYP inhibition 2C19 (CYP 2C19): 98.3 | CYP inhibition 2D6 (CYP 2D6): 93.9
SMILES: CC(=O)Nc1cc(F)cc(-c2ccc3[nH]cc(-c4ccccc4)c3n2)c1 [JGJ037, N-(3-Fluoro-5-(3-phenyl-1H-pyrrolo[3,2-b]pyridin-5-yl)phenyl)acetamide]
IC50 (CAPAN-1): 22 µM | Proliferation and apoptosis of cancer cells (MYC-driven cancers): reduced proliferation and induced apoptosis preferentially in MYC-driven cancers

SMILES: Nc1ccn([C@@H]2O[C@H](CO)[C@@H](O)[C@@H]2O)c(=O)n1 [Ara-C, Cytarabine]
Colony forming capacity cell numbers (CFCs) of LSCs (LSCs): did not alter colony forming capacity cell numbers (CFCs)

IC50 (BT-549): 72 µM | IC50 (MDA-MB231): 13 µM | IC50 (MCF7 [10]): 5 µM | IC50 (MCF7 [3]): 32 µM
SMILES: CC(=O)c1c(C)c2cnc(Nc3ccc(N4CCNCC4)cn3)nc2n(C2CCCC2)c1=O [Palbociclib, reference compound]

Source: patent US20230059009A1, “INHIBITORS OF LIN28 AND METHODS OF USE THEREOF” (The Regents of the University of California, priority 2019, published 2023)
